Tests used:
[1] = system: T47D breast cancer cell line; test: Cytotoxicity MTT assay, T47D; type: cell-based, human; settings: Homo sapiens, T47D; MTT, 48 hours
Method in brief: (§1)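 Cells in DMEM with 10% FBS and penicillin/streptomycin (37 °C, 5% CO2) were seeded at 10 000 per well, grown overnight, then exposed to compounds for 48 hours. MTT (0.5 mg mL^−1) was added for 3 hours, formazan dissolved in DMSO, and absorbance read at 570 nm; viability was expressed against DMSO vehicle.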

[2] = system: HS 578T; test: NCI60 five-dose screen; type: cell-based; settings: Homo sapiens, breast cancer; for CC50: read-out: LC50 (the source's name)
[3] = system: DU-145; test: NCI60 five-dose screen; type: cell-based; settings: Homo sapiens, DU-145, prostate cancer; for CC50: read-out: LC50 (the source's name)
[4] = system: UACC-257; test: NCI60 five-dose screen; type: cell-based; settings: Homo sapiens, UACC-257, melanoma; for CC50: read-out: LC50 (the source's name)
[5] = system: M14; test: NCI60 five-dose screen; type: cell-based; settings: Homo sapiens, M14, melanoma; for CC50: read-out: LC50 (the source's name)
[6] = system: NCI-H522; test: NCI60 five-dose screen; type: cell-based; settings: Homo sapiens, NCI-H522, NSC lung cancer; for CC50: read-out: LC50 (the source's name)
[7] = system: MALME-3M; test: NCI60 five-dose screen; type: cell-based; settings: Homo sapiens, melanoma; for CC50: read-out: LC50 (the source's name)
[8] = Cytotoxicity MTT assay, L929; type: cell-based, mouse; settings: mouse, L929 fibroblast cells; MTT, 48 hours
Method in brief: as §1

[9] = system: L929 normal mouse fibroblast cell line; test: Cytotoxicity MTT assay, L929; type: cell-based; settings: IC50 (L929)/IC50 (T47D)
Method in brief: as §1

[10] = system: OVCAR-5; test: NCI60 five-dose screen; type: cell-based; settings: Homo sapiens, OVCAR-5, ovarian cancer; for CC50: read-out: LC50 (the source's name)
[11] = system: MDA-MB-435; test: NCI60 five-dose screen; type: cell-based, human; settings: Homo sapiens; for CC50: MDA-MB-435, MDA-MB-435, melanoma, read-out: LC50 (the source's name); for GI50: MDA-MB-435, melanoma
[12] = system: TK-10; test: NCI60 five-dose screen; type: cell-based; settings: Homo sapiens, TK-10, renal cancer; for CC50: read-out: LC50 (the source's name)
[13] = biological target: T1, Human CYP19 (aromatase) (Homo sapiens, UniProt P11511); test: Aromatase inhibition assay (DBF fluorometric substrate); type: biochemical; settings: active defined as IC50 < 12.5 µM
T1 construct: purchased GENTEST, Woburn, MA 456260; host or cells: baculovirus/insect cells
T1 sequence (P11511 1-503): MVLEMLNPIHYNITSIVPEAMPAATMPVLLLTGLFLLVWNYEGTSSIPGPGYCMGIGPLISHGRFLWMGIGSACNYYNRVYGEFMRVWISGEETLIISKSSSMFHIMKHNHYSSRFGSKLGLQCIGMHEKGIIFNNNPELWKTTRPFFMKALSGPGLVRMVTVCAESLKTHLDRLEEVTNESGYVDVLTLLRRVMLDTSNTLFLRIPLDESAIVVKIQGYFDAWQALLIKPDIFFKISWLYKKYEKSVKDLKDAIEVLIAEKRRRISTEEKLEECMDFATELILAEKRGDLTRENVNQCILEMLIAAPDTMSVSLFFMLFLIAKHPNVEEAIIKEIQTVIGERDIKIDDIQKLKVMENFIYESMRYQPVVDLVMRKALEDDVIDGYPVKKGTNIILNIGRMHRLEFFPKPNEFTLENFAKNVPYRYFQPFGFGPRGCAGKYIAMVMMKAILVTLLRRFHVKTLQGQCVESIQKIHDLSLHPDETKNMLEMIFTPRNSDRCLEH
Method in brief: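 Insect-cell-expressed human CYP19 Supersomes with oxidoreductase turned over DBF for 30 min at 37 °C after a 10 min 37 °C pre-incubation with cofactor. NaOH quench; product measured by fluorescence, excitation 490 nm, emission 530 nm.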

[14] = system: U251; test: NCI60 five-dose screen; type: cell-based; settings: Homo sapiens, U-251, U251, CNS cancer; for CC50: read-out: LC50 (the source's name)
[15] = system: SW-620; test: NCI60 five-dose screen; type: cell-based; settings: Homo sapiens, SW-620, colon cancer; for CC50: read-out: LC50 (the source's name)
[16] = system: CCRF-CEM; test: NCI60 five-dose screen; type: cell-based; settings: Homo sapiens, leukemia; for CC50: read-out: LC50 (the source's name)
[17] = system: 786-0; test: NCI60 five-dose screen; type: cell-based; settings: Homo sapiens, 786-0, renal cancer; for CC50: read-out: LC50 (the source's name)
[18] = system: NCI-H322M; test: NCI60 five-dose screen; type: cell-based; settings: Homo sapiens, NSC lung cancer; for CC50: read-out: LC50 (the source's name)
[19] = system: HOP-92; test: NCI60 five-dose screen; type: cell-based; settings: Homo sapiens, HOP-92, NSC lung cancer; for CC50: read-out: LC50 (the source's name)
[20] = system: KM12; test: NCI60 five-dose screen; type: cell-based; settings: Homo sapiens, KM12, colon cancer; for CC50: read-out: LC50 (the source's name)
[21] = system: A498; test: NCI60 five-dose screen; type: cell-based; settings: Homo sapiens, A498, renal cancer; for CC50: read-out: LC50 (the source's name)
[22] = system: OVCAR-4; test: NCI60 five-dose screen; type: cell-based; settings: Homo sapiens, OVCAR-4, ovarian cancer; for CC50: read-out: LC50 (the source's name)

Row | Compound | IC50 [1] | GI50 [2] | CC50 [2] | GI50 [3] | CC50 [3] | GI50 [4] | CC50 [4] | GI50 [5] | CC50 [5] | GI50 [6] | CC50 [6] | GI50 [7] | CC50 [7] | IC50 at 48 h [8] | Selectivity index (SI) [9] | GI50 [10] | CC50 [10] | GI50 [11] | GI50 [12] | CC50 [12] | also measured
1 | CCc1ccc(/C=N/NC(=O)c2[nH]c3ccc(Br)cc3c2-c2ccccc2)[nH]1 [Derivative 3s, (E)-5-Bromo-N′-((5-ethyl-1H-pyrrol-2-yl)methylene)-3-phenyl-1H-indole-2-carbohydrazide] | 3.8 ± 1 µM | 0.294 µM | > 100 µM | 0.418 µM | 36.7 µM | 1.32 µM | 64.7 µM | 0.318 µM | 38.7 µM | 0.183 µM | 28 µM | 0.88 µM | 46.5 µM | 19.5 ± 11.8 µM | 5.13 | 0.573 µM | 38.7 µM | 0.227 µM | 2.91 µM | 46.3 µM | CC50 [11]: 34 µM; IC50 [13]: 4.6 ± 0.5 µM; GI50 [14]: 0.329 µM; CC50 [14]: 36.7 µM; GI50 [15]: 0.558 µM; CC50 [15]: 43.2 µM; GI50 [16]: 0.375 µM; CC50 [16]: > 100 µM; GI50 [17]: 0.801 µM; CC50 [17]: 47.4 µM; GI50 [18]: 1.73 µM; CC50 [18]: 64.6 µM; GI50 [19]: 2.01 µM; CC50 [19]: 40.1 µM; GI50 [20]: 0.289 µM; CC50 [20]: 37.5 µM; GI50 [21]: 5.59 µM; CC50 [21]: 47.2 µM; GI50 [22]: 2.41 µM; CC50 [22]: 53.7 µM
2 | O=C(N/N=C/c1cc(Cl)c[nH]1)c1[nH]c2ccc(Br)cc2c1-c1ccccc1 [Derivative 3h, (E)-5-Bromo-N′-((4-chloro-1H-pyrrol-2-yl)methylene)-3-phenyl-1H-indole-2-carbohydrazide] | 2.4 ± 1.8 µM | 0.284 µM | > 100 µM | 0.352 µM | 27.2 µM | 0.856 µM | 58.8 µM | 0.305 µM | 50.3 µM | 0.211 µM | > 100 µM | 0.645 µM | 46.1 µM | 53.7 ± 30.4 µM | 22.4 | 0.473 µM | 36 µM | 0.185 µM | 3.91 µM | 83.2 µM | IC50 [13]: 1.8 ± 0.4 µM; GI50 [14]: 0.349 µM; CC50 [14]: 24.9 µM; GI50 [15]: 0.328 µM; CC50 [15]: 80.9 µM; GI50 [16]: 0.132 µM; CC50 [16]: > 100 µM; GI50 [17]: 0.459 µM; CC50 [17]: 39.8 µM; GI50 [18]: 0.768 µM; CC50 [18]: 92.3 µM; GI50 [19]: 1.19 µM; CC50 [19]: 55.4 µM; GI50 [20]: 0.328 µM; CC50 [20]: 20.7 µM; GI50 [21]: 1.45 µM; CC50 [21]: 42.1 µM; GI50 [22]: 0.555 µM; CC50 [22]: 34.1 µM
3 | CCc1c[nH]c(/C=N/NC(=O)c2[nH]c3ccc(Br)cc3c2-c2ccccc2)c1 [Derivative 3t, (E)-5-Bromo-N′-((4-ethyl-1H-pyrrol-2-yl)methylene)-3-phenyl-1H-indole-2-carbohydrazide] | 4.6 ± 2.9 µM | 0.3 µM | 87.3 µM | 0.38 µM | 39.5 µM | 1.23 µM | 41.3 µM | 0.337 µM | 38.4 µM | 0.206 µM | 29.5 µM | 1.72 µM | 48 µM | 7.1 ± 3.6 µM | 1.54 | 0.337 µM | 37.2 µM | 0.23 µM | 2.83 µM | 42.1 µM | CC50 [11]: 38.7 µM; IC50 [13]: 4.7 ± 0.5 µM; GI50 [14]: 0.373 µM; CC50 [14]: 38.2 µM; GI50 [15]: 0.431 µM; CC50 [15]: 42.5 µM; GI50 [16]: 0.368 µM; CC50 [16]: > 100 µM; GI50 [17]: 0.646 µM; CC50 [17]: 38.5 µM; GI50 [18]: 2.31 µM; CC50 [18]: 49.8 µM; GI50 [19]: 2.57 µM; CC50 [19]: 33 µM; GI50 [20]: 0.325 µM; CC50 [20]: 34.4 µM; GI50 [21]: 13.7 µM; CC50 [21]: 54.5 µM; GI50 [22]: 2.17 µM; CC50 [22]: 43 µM
4 | O=C(N/N=C/c1[nH]ccc1Cl)c1[nH]c2ccc(Br)cc2c1-c1ccccc1 [Derivative 3g, (E)-5-Bromo-N′-((3-chloro-1H-pyrrol-2-yl)methylene)-3-phenyl-1H-indole-2-carbohydrazide] | 8.2 ± 1.8 µM | 0.59 µM | > 100 µM | 1.58 µM | 33.1 µM | 0.738 µM | 52 µM | 0.689 µM | 45.4 µM | 0.233 µM | 20.4 µM | 0.596 µM | 48.4 µM | 20.1 ± 10.3 µM | 2.45 | 1.1 µM | 35.7 µM | 0.222 µM | 7.16 µM | 49.5 µM | CC50 [11]: 25.5 µM; IC50 [13]: 2.6 ± 0.5 µM; GI50 [14]: 0.63 µM; CC50 [14]: 37.7 µM; GI50 [15]: 0.499 µM; CC50 [15]: 50.2 µM; GI50 [16]: 1.53 µM; CC50 [16]: > 100 µM; GI50 [17]: 2.58 µM; CC50 [17]: 50.2 µM; GI50 [18]: 3.14 µM; CC50 [18]: 48.8 µM; GI50 [19]: 2.79 µM; CC50 [19]: 50.1 µM; GI50 [20]: 0.488 µM; CC50 [20]: 34.6 µM; GI50 [21]: 10.6 µM; CC50 [21]: 49.3 µM; GI50 [22]: 3.09 µM; CC50 [22]: 43.5 µM
5 | O=C(N/N=C/c1ccc[nH]1)c1[nH]c2ccc(Br)cc2c1-c1ccccc1 [Derivative 3a, (E)-N′-((1H-Pyrrol-2-yl)methylene)-5-bromo-3-phenyl-1H-indole-2-carbohydrazide] | 1.6 ± 1 µM | 0.452 µM | > 100 µM | 0.429 µM | 33.3 µM | 0.647 µM | 47.1 µM | 0.304 µM | 41.4 µM | 0.045 µM | 22 µM | 0.32 µM | 30.9 µM | 26.3 ± 14.5 µM | 16.4 | 0.437 µM | 30.8 µM | 0.105 µM | 2.46 µM | 37.1 µM | IC50 [13]: 3.4 ± 0.6 µM; GI50 [14]: 0.375 µM; CC50 [14]: 12.4 µM; GI50 [15]: 0.352 µM; CC50 [15]: 37.4 µM; GI50 [16]: 0.345 µM; CC50 [16]: > 100 µM; GI50 [17]: 0.791 µM; CC50 [17]: 23.9 µM; GI50 [18]: 0.661 µM; CC50 [18]: 36.5 µM; GI50 [19]: 0.992 µM; CC50 [19]: 26.4 µM; GI50 [20]: 0.388 µM; CC50 [20]: 56.5 µM; GI50 [21]: 2.57 µM; CC50 [21]: 41.6 µM; GI50 [22]: 0.814 µM; CC50 [22]: 33.6 µM
